Experimental data published in patent US12534477B2, “Compound having KHK inhibitory effect” (HANGZHOU ZHONGMEIHUADONG PHARMACEUTICAL CO., LTD., priority 2019, dated 2026).
Where two headings read alike, the source gives them in different places.

Tests used:
[1] = Liver-blood ratio, tissue distribution in rats; assay type: in vivo, SD rats; details: PO 1 mpk
Procedure: Tissue distribution of compounds in SD rats was tested.
In the experiment, candidate compounds were formulated as clear solutions and administered to rats in a single oral dose (PO, 1 mpk). The vehicle for oral administration was a certain proportion of methylcellulose and Tween 80 in water. Whole blood was collected at a certain time and plasma was prepared, and tissues were collected at the corresponding time and prepared into tissue homogenates. Drug concentration was analyzed by LC-MS/MS, and pharmacokinetic parameters were calculated by Phoenix WinNonlin software.

CYP1A2 = CYP1A2 (Homo sapiens (Human), UniProt P05177); assay type: in vitro ADME; details: microsomes
CYP1A2, sequence (P05177 whole entry): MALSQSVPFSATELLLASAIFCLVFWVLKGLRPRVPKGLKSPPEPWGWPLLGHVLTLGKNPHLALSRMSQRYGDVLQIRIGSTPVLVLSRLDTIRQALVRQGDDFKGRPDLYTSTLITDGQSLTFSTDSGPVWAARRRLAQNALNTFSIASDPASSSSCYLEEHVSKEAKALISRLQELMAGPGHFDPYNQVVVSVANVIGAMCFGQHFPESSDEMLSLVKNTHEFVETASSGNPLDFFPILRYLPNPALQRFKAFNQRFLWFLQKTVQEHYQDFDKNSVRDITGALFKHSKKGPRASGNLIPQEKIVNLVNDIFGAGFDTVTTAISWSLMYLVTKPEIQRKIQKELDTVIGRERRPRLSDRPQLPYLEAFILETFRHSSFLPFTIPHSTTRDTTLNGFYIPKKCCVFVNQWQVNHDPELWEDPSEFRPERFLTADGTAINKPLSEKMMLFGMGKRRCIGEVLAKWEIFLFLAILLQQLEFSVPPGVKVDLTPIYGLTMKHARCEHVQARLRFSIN
Procedure: (§1) The inhibitory effect of test compounds on the activity of human hepatic microsomal cytochrome P450 isozymes (CYP1A2, CYP2C9, CYP2C19, CYP2D6 and CYP3A4) was determined.
(§2) First, the test compound (10 mM) was diluted in gradient to prepare working solutions (100×final concentration) with working solution concentrations: 5, 1.5, 0.5, 0.15, 0.05, 0.015, 0.005 mM, respectively, and at the same time, working solutions of each positive inhibitor of P450 isozymes (CYP1A2, CYP2C9, CYP2C19, CYP2D6 and CYP3A4) and its specific substrate mixture were prepared. Human liver microsomes frozen in a −80° C. refrigerator were thawed on ice, and diluted with PB (phosphate buffer) after all the human liver microsomes were dissolved, to prepare a working solution at a certain concentration (0.253 mg/mL). 20 μl substrate mixture was added to the reaction plate (20 μL PB was added to the Blank wells) while 158 μL human liver microsome working solution was added to the reaction plate which was placed on ice for later use. At this time, 2 μL of each concentration of the test compound (N=1) and the specific inhibitor (N=2) were added to the corresponding wells, and the corresponding organic solvents were added to the groups without inhibitors (the test compound or the positive inhibitor) as control samples (1:1 DMSO:MeOH for the test compound control sample, and 1:9 DMSO:MeOH for the positive control sample). After pre-incubation in 37° C. water bath for 10 min, 20 μL coenzyme factor (NADPH) solution was added to the reaction plate, and incubated in 37° C. water bath for 10 min. 400 μL cold acetonitrile solution (200 ng/mL Tolbutamide and Labetalol as the internal standard) was added to stop the reaction. The reaction plate was placed on a shaker and shaken for 10 min. The mixture was centrifuged at 4,000 rpm for 20 min, and 200 μl the supernatant was added to 100 μL water for sample dilution. Finally, the plate was sealed, shaken, mixed well and detected by LC/MS/MS.

[2] = biological target: Recombinant Human Ketohexokinase (KHK) (Homo sapiens (Human), UniProt P50053); assay: Ketohexokinase assay (KHK assay), ADP-Glo; assay type: biochemical
Recombinant Human Ketohexokinase (KHK), sequence (P50053 whole entry): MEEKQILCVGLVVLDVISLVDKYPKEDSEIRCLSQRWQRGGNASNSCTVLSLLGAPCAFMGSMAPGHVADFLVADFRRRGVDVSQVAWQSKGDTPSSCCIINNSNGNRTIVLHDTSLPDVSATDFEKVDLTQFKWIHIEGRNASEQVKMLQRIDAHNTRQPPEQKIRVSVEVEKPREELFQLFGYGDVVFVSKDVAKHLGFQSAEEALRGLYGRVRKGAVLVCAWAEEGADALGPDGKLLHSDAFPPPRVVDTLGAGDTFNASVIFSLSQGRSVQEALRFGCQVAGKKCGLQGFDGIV
Procedure: • 1. EnVision multilabel reader, Perkin Elmer; • 2. OptiPlate 384-well microplate, Perkin Elmer, Cat. No. 6007290; • 3. Recombinant Human Ketohexokinase (KHK), R&D Cat. No.: 8177-HK-020, Lot No.: DDFK0117092; • 4. Fructose (D(−)-Fructose), SCR Cat. No.: 36003034; and • 5. ADP-Glo kinase assay kit, Promega_Cat. No.: V9101.
1. preparation of Dilution Buffer containing 50 mM hydroxyethylpiperazine […] (Hepes), 140 mM KCl, 3.5 mM MgCl2, and 0.01% bovine serum albumin (BSA), pH 7.4.
2. A working solution of ketohexokinase at 2.5 times concentration was prepared with Dilution Buffer, with 50 nM ketohexokinase and 12.5 mM fructose.
3. A working solution of adenosine triphosphate (ATP) at 2.5 times concentration was prepared with Dilution Buffer, with a concentration of 250 μM.
4. Each compound was diluted starting at a concentration of 500 μM, 3-fold diluted for 9 concentration points. The final concentration of the compound in the reaction system started from 10 μM and the final concentration of dimethyl sulfoxide (DMSO) was 2%.
5. A 96-well plate was prepared as a reaction plate, and was incubated at room temperature for 5 min after adding 6 μL ketohexokinase working solution at 2.5 times concentration to each well and further adding 3 μL compound working solution to each well.
6. The first well of each row was a positive control for a compound, i.e. the same volume of the buffer was added to replace the compound and ketohexokinase. The last well was a negative control for the compound, i.e. the same volume of Dilution Buffer was added instead of the compound.
7. 6 μL ATP working solution was added to each well in a 96-well reaction plate to initiate the kinase reaction. The kinase reaction was incubated in a constant temperature heater at 28° C. for 1 h.
1. A384 plate was prepared as a detection plate, and firstly 5 μL ADP-Glo reagent was added.
2. 5 μL kinase reaction mixture from the reaction plate was added to each well and incubated in a constant temperature heater at 28° C. for 30 min.
3. 10 μL kinase detection reagent was added to each well and incubated in a constant temperature heater at 28° C. for 30 min.
4. The detection plate was placed in an EnVision multilabel reader to read the chemiluminescent signal.

CYP3A4 = CYP3A4 (Homo sapiens (Human), UniProt P08684); assay: Inhibitory activity on human liver microsomal cytochrome P450 isozymes; assay type: in vitro ADME; details: human liver microsomes
CYP3A4, sequence (P08684 whole entry): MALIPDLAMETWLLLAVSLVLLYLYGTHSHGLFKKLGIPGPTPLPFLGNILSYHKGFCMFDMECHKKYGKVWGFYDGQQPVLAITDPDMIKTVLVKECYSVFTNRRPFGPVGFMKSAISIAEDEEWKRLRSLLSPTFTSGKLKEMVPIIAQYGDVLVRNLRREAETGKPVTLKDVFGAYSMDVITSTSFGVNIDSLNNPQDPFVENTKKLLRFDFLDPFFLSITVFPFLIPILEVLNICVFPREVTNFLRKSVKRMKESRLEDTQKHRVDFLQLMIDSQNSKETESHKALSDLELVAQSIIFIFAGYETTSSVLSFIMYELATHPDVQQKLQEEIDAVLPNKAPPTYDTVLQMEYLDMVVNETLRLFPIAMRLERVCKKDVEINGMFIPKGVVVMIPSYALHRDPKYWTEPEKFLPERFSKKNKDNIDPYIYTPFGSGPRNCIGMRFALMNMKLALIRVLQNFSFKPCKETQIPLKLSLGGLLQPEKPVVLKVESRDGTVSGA
Procedure: as §1, §2

CYP2C9 = CYP2C9 (Homo sapiens (Human), UniProt P11712); assay: as above; assay type: in vitro ADME; details: human liver microsomes
CYP2C9, sequence (P11712 whole entry): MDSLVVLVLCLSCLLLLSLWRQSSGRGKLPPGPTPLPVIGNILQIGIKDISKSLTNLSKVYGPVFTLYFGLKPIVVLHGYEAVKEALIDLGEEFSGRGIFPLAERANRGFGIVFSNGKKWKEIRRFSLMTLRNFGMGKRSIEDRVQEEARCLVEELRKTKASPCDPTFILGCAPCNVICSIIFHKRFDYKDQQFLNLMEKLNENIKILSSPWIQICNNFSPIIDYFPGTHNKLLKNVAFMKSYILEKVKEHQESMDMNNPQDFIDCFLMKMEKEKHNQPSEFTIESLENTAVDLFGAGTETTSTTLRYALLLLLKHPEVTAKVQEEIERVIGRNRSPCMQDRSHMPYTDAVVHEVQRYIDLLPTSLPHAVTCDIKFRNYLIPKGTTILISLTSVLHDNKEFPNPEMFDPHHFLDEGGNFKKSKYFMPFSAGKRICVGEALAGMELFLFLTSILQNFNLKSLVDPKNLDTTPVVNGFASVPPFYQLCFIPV
Procedure: as §1, §2

CYP2C19 = CYP2C19 (Homo sapiens (Human), UniProt P33261); assay: as above; assay type: in vitro ADME; details: human liver microsomes
CYP2C19, sequence (P33261 whole entry): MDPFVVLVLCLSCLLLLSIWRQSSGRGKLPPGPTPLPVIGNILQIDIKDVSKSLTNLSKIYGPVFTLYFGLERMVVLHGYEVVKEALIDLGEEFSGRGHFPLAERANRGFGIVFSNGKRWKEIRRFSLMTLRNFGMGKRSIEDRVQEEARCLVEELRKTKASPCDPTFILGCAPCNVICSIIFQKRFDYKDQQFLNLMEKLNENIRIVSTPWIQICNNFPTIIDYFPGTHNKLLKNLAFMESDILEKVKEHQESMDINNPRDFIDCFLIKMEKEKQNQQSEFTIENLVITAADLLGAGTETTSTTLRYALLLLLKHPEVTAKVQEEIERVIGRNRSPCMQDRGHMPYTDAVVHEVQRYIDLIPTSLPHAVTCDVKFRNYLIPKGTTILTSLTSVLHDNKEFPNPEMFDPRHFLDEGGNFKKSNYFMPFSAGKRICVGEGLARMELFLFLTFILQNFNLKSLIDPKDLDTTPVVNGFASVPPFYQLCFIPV
Procedure: as §1, §2

CYP2D6 = CYP2D6 (Homo sapiens (Human), UniProt P10635); assay: as above; assay type: in vitro ADME; details: human liver microsomes
CYP2D6, sequence (P10635 whole entry): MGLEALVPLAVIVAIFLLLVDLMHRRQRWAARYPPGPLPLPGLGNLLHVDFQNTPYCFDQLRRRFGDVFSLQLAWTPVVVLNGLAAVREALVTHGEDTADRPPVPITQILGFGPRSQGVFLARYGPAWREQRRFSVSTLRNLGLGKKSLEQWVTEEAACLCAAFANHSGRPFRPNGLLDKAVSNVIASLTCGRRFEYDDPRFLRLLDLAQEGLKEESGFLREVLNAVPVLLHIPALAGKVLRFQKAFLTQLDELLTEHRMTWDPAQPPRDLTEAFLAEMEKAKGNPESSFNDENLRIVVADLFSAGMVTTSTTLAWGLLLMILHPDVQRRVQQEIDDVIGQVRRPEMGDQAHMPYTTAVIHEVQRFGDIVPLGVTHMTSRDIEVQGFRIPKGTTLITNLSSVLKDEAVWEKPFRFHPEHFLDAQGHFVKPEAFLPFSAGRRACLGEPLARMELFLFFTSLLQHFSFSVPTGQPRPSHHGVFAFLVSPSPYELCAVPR
Procedure: as §1, §2

[3] = Pharmacokinetic evaluation in SD rats; assay type: in vivo; details: rat, plasma; for clearance: 1 mg/kg, read-out: Clearance rate; for clearance / bioavailability: IV 1 mpk; for bioavailability / AUC: PO 3 mpk; for bioavailability: read-out: Bioavailability F; for AUC: read-out: Integral concentration AUC for PO; for half-life: IV 1 mpk and PO 3 mpk study, read-out: Half-life T1/2 (converted)
Procedure: In vivo pharmacokinetics of compounds in SD rats were tested.
Pharmacokinetic profiles in rodents following intravenous and oral administration of the compounds were tested by standard protocols. In the experiment, candidate compounds were formulated as clear solutions or homogeneous suspensions, and were administered to rats by single intravenous injection (IV, 1 mpk) and oral administration (PO, 3 mpk). The vehicle for intravenous injection was a certain proportion of PEG400 in water, and the vehicle for oral administration was a certain proportion of methylcellulose and Tween 80 in water. Whole blood was collected, and plasma was prepared. Drug concentration was analyzed by LC-MS/MS, and pharmacokinetic parameters were calculated by Phoenix WinNonlin software.

[4] = system: fructose metabolism in mice; assay: Acute fructose feeding experiment in mice; assay type: in vivo; details: compound 30 mpk, oral fructose 1 g/kg
Procedure: The effect of test compounds on the fructose content in mice with high fructose intake was investigated.
All animals were acclimated for one week in an animal house, fed with normal chow and fasted for 16 hours before being given fructose.
1) The experiment began at −0.5 hr. A control group was given a certain volume of vehicle (a certain proportion of methylcellulose and Tween 80 in water), and an experimental group was given a certain dose of a solution of the compound (the administered volume was consistent with the vehicle).
2) 0.5 hour later and before administration of a fructose solution, a blood sample was collected at 0 hr, followed by oral administration of 1 g/kg of an aqueous fructose solution.
3) After the administration of fructose, blood samples were collected from saphenous vein of mice at 0.25, 0.5, 1, 2, 3 and 8 hr, and fructose concentration was analyzed by LC-MS/MS.

[5] = SD, rat, liver, 1 mg/kg, 1.5 h, read-out: Liver tissue concentration
[6] = SD, rat, liver, 1 mg/kg, 2.0 h, read-out: Liver tissue concentration
[7] = SD, rat, liver, 1 mg/kg, 6.0 h, read-out: Liver tissue concentration
[8] = SD, rat, liver/plasma, 1 mg/kg, 1.5 h, read-out: Liver-blood ratio
[9] = SD, rat, liver/plasma, 1 mg/kg, 2.0 h, read-out: Liver-blood ratio
[10] = SD, rat, liver/plasma, 1 mg/kg, 6.0 h, read-out: Liver-blood ratio
[11] = SD, rat, plasma, 1 mg/kg, 1.5 h, read-out: Plasma concentration
[12] = SD, rat, plasma, 1 mg/kg, 2.0 h, read-out: Plasma concentration
[13] = SD, rat, plasma, 1 mg/kg, 6.0 h, read-out: Plasma concentration
[14] = 1.5 h, read-out: Brain tissue concentration
[15] = 1.5 h, read-out: Liver tissue concentration
[16] = 2.0 h, read-out: Brain tissue concentration
[17] = 2.0 h, read-out: Liver tissue concentration
[18] = 6.0 h, read-out: Liver tissue concentration

concentration at 1.5 h [1, 5] [µM] | concentration at 2 h [1, 6] [µM] | concentration at 6 h [1, 7] [µM] | Kp at 1.5 h [1, 8] | Kp at 2 h [1, 9] | Kp at 6 h [1, 10] | concentration at 1.5 h [1, 11] [µM] | concentration at 2 h [1, 12] [µM] | concentration at 6 h [1, 13] [µM] | IC50 (CYP1A2; human, 10 min) [µM] | IC50 [2] [µM] | IC50 (CYP3A4) [µM] | IC50 (CYP2C9) [µM] | IC50 (CYP2C19) [µM] | IC50 (CYP2D6) [µM] | clearance [3] [L/h/kg] | bioavailability ([3]; 3 mg/kg) [%] | AUC ([3]; 3 mg/kg) [µM·h] | half-life [3] [h] | Brain-blood ratio ([1]; 1.5 h) | Compound | other results
2.44 | 4.27 | 1.79 | 0.491 | 0.469 | 0.549 | 4.88 | 9.09 | 3.32 | > 50 | 0.18 | > 50 | > 50 | > 50 | > 50 | 0.0624 | 158 | 163 | 3.12 | – | C[C@H]1CCN1c1nc(N2C[C@@H]3[C@@H](CC(=O)O)[C@@H]3C2)c2ncsc2n1 [WX001] | concentration at 1.5 h ([1]; SD, rat, brain, 1 mg/kg, 1.5 h, read-out: Brain tissue concentration): 0.0728 µM; concentration at 2 h ([1]; SD, rat, brain, 1 mg/kg, 2.0 h, read-out: Brain tissue concentration): 0.162 µM; concentration at 6 h ([1]; SD, rat, brain, 1 mg/kg, 6.0 h, read-out: Brain tissue concentration): 0.0915 µM; Kp at 1.5 h ([1]; SD, rat, brain/plasma, 1 mg/kg, 1.5 h, read-out: Brain-blood ratio): 0.015; Kp at 2 h ([1]; SD, rat, brain/plasma, 1 mg/kg, 2.0 h, read-out: Brain-blood ratio): 0.017; Kp at 6 h ([1]; SD, rat, brain/plasma, 1 mg/kg, 6.0 h, read-out: Brain-blood ratio): 0.02
2.42 | 2.87 | 2.18 | 1.2 | 0.92 | 1.25 | 2.01 | 3.1 | 1.78 | > 50 | 0.025 | > 50 | > 50 | > 50 | > 50 | 0.063 | 44 | 39.5 | 2.63 | – | C[C@H]1CCN1c1nc(Nc2ccc(CC(=O)O)cc2)c2ccsc2n1 [WX006] | –
– | – | – | – | – | – | – | – | – | – | – | > 50 | > 50 | > 50 | > 50 | 0.488 | – | 20.5 | 2.27 | 0.0375 | C[C@H]1CCN1c1nc(N2CC3(C[C@@H]3C(=O)O)C2)c2c(n1)C(F)(F)CC2 [WX042] | Liver-blood ratio ([1]; 1.5 h): 9.53; Plasma concentration ([1]; 1.5 h): 3.314 µM; concentration at 6 h [1, 14]: 0.0762 µM; concentration at 1.5 h [1, 15]: 19.9 µM; Brain-blood ratio ([1]; 2.0 h): 0.0211; Liver-blood ratio ([1]; 2.0 h): 6.78; Plasma concentration ([1]; 2.0 h): 3.045 µM; concentration at 6 h [1, 16]: 0.0622 µM; concentration at 1.5 h [1, 17]: 20.6 µM; Liver-blood ratio ([1]; 6.0 h): 26.2; Plasma concentration ([1]; 6.0 h): 0.259 µM; concentration at 1.5 h [1, 18]: 6.71 µM; IC50 (CYP1A2): > 50 µM; AUC of integral fructose concentration for dosed group [4]: 3400 nM·h; AUC of integral fructose concentration of dosed group/AUC of Integral fructose concentration of control group [4]: 12.9; bioavailability [3]: 176%
– | – | – | – | – | – | – | – | – | – | – | > 50 | > 50 | > 50 | > 50 | 0.322 | – | 12 | 5.83 | 0.016 | C[C@H]1CCN1c1nc(N2CC3(C[C@H]3C(=O)O)C2)c2c(n1)C(F)(F)CC2 [WX043] | Liver-blood ratio ([1]; 1.5 h): 20.0; Plasma concentration ([1]; 1.5 h): 2.025 µM; concentration at 6 h [1, 14]: 0.0306 µM; concentration at 1.5 h [1, 15]: 38.25 µM; Brain-blood ratio ([1]; 2.0 h): 0.014; Liver-blood ratio ([1]; 2.0 h): 30.0; Plasma concentration ([1]; 2.0 h): 0.916 µM; concentration at 6 h [1, 16]: 0.0131 µM; concentration at 1.5 h [1, 17]: 27.8 µM; Liver-blood ratio ([1]; 6.0 h): 81.5; Plasma concentration ([1]; 6.0 h): 0.246 µM; concentration at 1.5 h [1, 18]: 19.8 µM; IC50 (CYP1A2): > 50 µM; AUC of integral fructose concentration for dosed group [4]: 3504 nM·h; AUC of integral fructose concentration of dosed group/AUC of Integral fructose concentration of control group [4]: 13.3; bioavailability [3]: 70%
